{
  "source": "PubChem BioAssay (NCI)",
  "test_in_all_cases": "DTP human tumour cell line panel, 48 h",
  "key": {"XF 498 CNS": {"system": "XF 498 CNS"}, "HOP-18 NSCLC": {"system": "HOP-18 NSCLC"}, "HS 578T breast": {"system": "HS 578T breast"}, "MCF7 breast": {"system": "MCF7 breast"}, "MDA-MB-231 breast": {"system": "MDA-MB-231 breast"}, "NCI/ADR-RES ovarian": {"system": "NCI/ADR-RES ovarian"}, "PC-3 prostate": {"system": "PC-3 prostate"}, "RXF-631 renal": {"system": "RXF-631 renal"}, "T-47D breast": {"system": "T-47D breast"}},
  "note": "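Results reflect a 48-hour exposure of cells in 96-well plates to compound at five concentrations. TGI: total growth inhibition.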",
  "data": [
    {"smiles": "N#CC(C(=O)CCC(=O)Nc1cccc(C(F)(F)F)c1)c1ccccc1", "note": "(configuration not stated)", "values": [
      {"measurement": "TGI", "setting": "XF 498 CNS", "result": "> 100", "unit": "µM"}
    ]},
    {"smiles": "Cc1nc(-n2nc(-c3ccccc3)cc2-c2ccccc2)sc1C(=O)/C=C/c1ccc([N+](=O)[O-])cc1", "values": [
      {"measurement": "TGI", "setting": "HOP-18 NSCLC", "result": "> 100", "unit": "µM"},
      {"measurement": "TGI", "setting": "HS 578T breast", "result": "> 100", "unit": "µM"},
      {"measurement": "TGI", "setting": "MCF7 breast", "result": "> 100", "unit": "µM"},
      {"measurement": "TGI", "setting": "MDA-MB-231 breast", "result": "> 100", "unit": "µM"},
      {"measurement": "TGI", "setting": "NCI/ADR-RES ovarian", "result": "> 100", "unit": "µM"},
      {"measurement": "TGI", "setting": "PC-3 prostate", "result": "> 100", "unit": "µM"},
      {"measurement": "TGI", "setting": "RXF-631 renal", "result": "> 100", "unit": "µM"},
      {"measurement": "TGI", "setting": "T-47D breast", "result": "> 100", "unit": "µM"}
    ]},
    {"smiles": "O=c1[nH]nc(CNc2ccc(Cl)cc2Cl)c2ccccc12", "values": [
      {"measurement": "TGI", "setting": "HOP-18 NSCLC", "result": 54.4, "unit": "µM"},
      {"measurement": "TGI", "setting": "RXF-631 renal", "result": "> 100", "unit": "µM"}
    ]},
    {"smiles": "CC(C)(C)OC(=O)N1CC(C)(C)N2C(=O)C3(CCCO3)C12", "note": "(configuration not stated)", "values": [
      {"measurement": "TGI", "setting": "HOP-18 NSCLC", "result": "> 100", "unit": "µM"}
    ]},
    {"smiles": "N#Cc1ccccc1NC(=O)C(=O)C(C(=O)c1ccncc1)C1OC(=O)c2ccccc21", "note": "(configuration not stated)", "values": [
      {"measurement": "TGI", "setting": "HOP-18 NSCLC", "result": "> 100", "unit": "µM"},
      {"measurement": "TGI", "setting": "RXF-631 renal", "result": "> 100", "unit": "µM"},
      {"measurement": "TGI", "setting": "XF 498 CNS", "result": "> 100", "unit": "µM"}
    ]},
    {"smiles": "O=C1NC(=S)NC(=O)C1=CC1CC1", "values": [
      {"measurement": "TGI", "setting": "HOP-18 NSCLC", "result": "> 100", "unit": "µM"},
      {"measurement": "TGI", "setting": "XF 498 CNS", "result": "> 100", "unit": "µM"}
    ]},
    {"smiles": "Cc1cc2c(=O)c(C)n[nH]c2c(C#N)c1C", "values": [
      {"measurement": "TGI", "setting": "HOP-18 NSCLC", "result": "> 100", "unit": "µM"},
      {"measurement": "TGI", "setting": "RXF-631 renal", "result": "> 100", "unit": "µM"},
      {"measurement": "TGI", "setting": "XF 498 CNS", "result": "> 100", "unit": "µM"}
    ]},
    {"smiles": "CC(C)c1cccc(C(C)C)c1NC(=O)C(=O)C1CCC2=C(Sc3ccccc3N2)C1=O", "note": "(configuration not stated)", "values": [
      {"measurement": "TGI", "setting": "HOP-18 NSCLC", "result": "> 100", "unit": "µM"},
      {"measurement": "TGI", "setting": "RXF-631 renal", "result": "> 100", "unit": "µM"}
    ]},
    {"smiles": "N#Cc1ccc(OCCSCCCCCCCCCCSCCOc2ccc(C#N)cc2)cc1", "values": [
      {"measurement": "TGI", "setting": "HOP-18 NSCLC", "result": "> 100", "unit": "µM"}
    ]},
    {"smiles": "CS(=O)(=O)NNS(=O)(=O)c1ccc(F)cc1", "values": [
      {"measurement": "TGI", "setting": "RXF-631 renal", "result": "> 100", "unit": "µM"}
    ]},
    {"smiles": "COC(=O)/C(=N\\NC(N)=O)C(C#N)c1ccccc1", "note": "(configuration not stated)", "values": [
      {"measurement": "TGI", "setting": "HOP-18 NSCLC", "result": "> 100", "unit": "µM"},
      {"measurement": "TGI", "setting": "XF 498 CNS", "result": "> 100", "unit": "µM"}
    ]},
    {"smiles": "CCc1cccc(C(C)CC)c1NC(=O)C(=O)Cc1nc2ccccc2o1", "note": "(configuration not stated)", "values": [
      {"measurement": "TGI", "setting": "XF 498 CNS", "result": "> 50", "unit": "µM"}
    ]},
    {"smiles": "Oc1ccc(C2Oc3cc(O)cc4c3C2c2cc(O)cc3c2C(c2cc(O)cc5c2C4C(c2ccc(O)cc2)O5)C(c2ccc(O)cc2)O3)cc1", "note": "(configuration not stated)", "values": [
      {"measurement": "TGI", "setting": "XF 498 CNS", "result": 24.5, "unit": "µM"}
    ]},
    {"smiles": "CC1SC2=NC3=C(c4ccccc4C3=O)C(c3ccccc3Cl)N2C1=O", "note": "(configuration not stated)", "values": [
      {"measurement": "TGI", "setting": "RXF-631 renal", "result": "> 100", "unit": "µM"},
      {"measurement": "TGI", "setting": "XF 498 CNS", "result": "> 100", "unit": "µM"}
    ]},
    {"smiles": "CN1N=C2c3ccccc3OC(c3ccccc3)[C@H]2C1c1ccccc1", "note": "(some centres not stated)", "values": [
      {"measurement": "TGI", "setting": "HOP-18 NSCLC", "result": "> 100", "unit": "µM"},
      {"measurement": "TGI", "setting": "XF 498 CNS", "result": "> 100", "unit": "µM"}
    ]},
    {"smiles": "O=C(CC1(O)C(=O)Nc2ccc([N+](=O)[O-])cc21)c1ccncc1", "note": "(configuration not stated)", "values": [
      {"measurement": "TGI", "setting": "HOP-18 NSCLC", "result": "> 100", "unit": "µM"},
      {"measurement": "TGI", "setting": "RXF-631 renal", "result": 54.7, "unit": "µM"},
      {"measurement": "TGI", "setting": "XF 498 CNS", "result": 34.2, "unit": "µM"}
    ]},
    {"smiles": "CC12C3CC4C5CC(C(C53)[C@@H]1NCc1ccccc1)C42", "note": "(some centres not stated)", "values": [
      {"measurement": "TGI", "setting": "HOP-18 NSCLC", "result": "> 100", "unit": "µM"},
      {"measurement": "TGI", "setting": "RXF-631 renal", "result": "> 100", "unit": "µM"},
      {"measurement": "TGI", "setting": "XF 498 CNS", "result": "> 100", "unit": "µM"}
    ]},
    {"smiles": "CCc1ccc(Cc2ccc(CC)c(NC(=O)C(=O)C3NC(=S)NC3=O)c2CC)c(CC)c1NC(=O)C(=O)C1NC(=S)NC1=O", "note": "(configuration not stated)", "values": [
      {"measurement": "TGI", "setting": "RXF-631 renal", "result": "> 100", "unit": "µM"}
    ]},
    {"smiles": "CSc1ccc2c(cc1=O)C(NC(=O)c1ccccc1)CCc1cc(O)c(O)c(O)c1-2", "note": "(configuration not stated)", "values": [
      {"measurement": "TGI", "setting": "HOP-18 NSCLC", "result": "> 100", "unit": "µM"}
    ]},
    {"smiles": "O=c1c(C(c2ccc([N+](=O)[O-])cc2)c2c(O)c3ccccc3n(-c3ccccc3)c2=O)c(O)c2ccccc2n1-c1ccccc1", "values": [
      {"measurement": "TGI", "setting": "HOP-18 NSCLC", "result": 9.08, "unit": "µM"},
      {"measurement": "TGI", "setting": "RXF-631 renal", "result": 44.6, "unit": "µM"},
      {"measurement": "TGI", "setting": "XF 498 CNS", "result": 58.4, "unit": "µM"}
    ]},
    {"smiles": "Nc1ccn(CCOC(c2ccccc2)P(=O)(O)O)c(=O)n1", "note": "(configuration not stated)", "values": [
      {"measurement": "TGI", "setting": "XF 498 CNS", "result": "> 100", "unit": "µM"}
    ]},
    {"smiles": "C=CCCCN1CCCCC1=S", "values": [
      {"measurement": "TGI", "setting": "HOP-18 NSCLC", "result": "> 100", "unit": "µM"},
      {"measurement": "TGI", "setting": "RXF-631 renal", "result": "> 100", "unit": "µM"},
      {"measurement": "TGI", "setting": "XF 498 CNS", "result": "> 100", "unit": "µM"}
    ]},
    {"smiles": "CC(C)(CCl)NC(=O)c1cccc(C(=O)NC(C)(C)CCl)n1", "values": [
      {"measurement": "TGI", "setting": "RXF-631 renal", "result": "> 100", "unit": "µM"}
    ]},
    {"smiles": "COc1cccc(C=O)c1[O-].COc1cccc(C=O)c1[O-].[Zn+2]", "values": [
      {"measurement": "TGI", "setting": "HOP-18 NSCLC", "result": "> 100", "unit": "µM"}
    ]},
    {"smiles": "CCCCCCCC(=O)OCC1OC(n2cc(F)c(=O)[nH]c2=O)C(N)C(O)C1O", "note": "(configuration not stated)", "values": [
      {"measurement": "TGI", "setting": "HOP-18 NSCLC", "result": "> 100", "unit": "µM"}
    ]},
    {"smiles": "COc1ccc(-c2cc(=O)c3cc(Cl)ccc3[nH]2)cc1", "values": [
      {"measurement": "TGI", "setting": "HOP-18 NSCLC", "result": "> 100", "unit": "µM"},
      {"measurement": "TGI", "setting": "RXF-631 renal", "result": "> 100", "unit": "µM"},
      {"measurement": "TGI", "setting": "XF 498 CNS", "result": "> 100", "unit": "µM"}
    ]},
    {"smiles": "Cn1ccc(=NS(=O)(=O)c2ccccc2)cc1", "values": [
      {"measurement": "TGI", "setting": "HOP-18 NSCLC", "result": "> 100", "unit": "µM"},
      {"measurement": "TGI", "setting": "RXF-631 renal", "result": "> 100", "unit": "µM"},
      {"measurement": "TGI", "setting": "XF 498 CNS", "result": "> 100", "unit": "µM"}
    ]},
    {"smiles": "Cc1cccc(N=Cc2ccc(N(CCC#N)S(=O)(=O)c3ccccc3)cc2C)c1", "values": [
      {"measurement": "TGI", "setting": "RXF-631 renal", "result": "> 100", "unit": "µM"},
      {"measurement": "TGI", "setting": "XF 498 CNS", "result": "> 100", "unit": "µM"}
    ]},
    {"smiles": "Brc1ccc(C=NC23CC4CC(CC(C4)C2)C3)cc1", "values": [
      {"measurement": "TGI", "setting": "HOP-18 NSCLC", "result": "> 100", "unit": "µM"},
      {"measurement": "TGI", "setting": "RXF-631 renal", "result": "> 100", "unit": "µM"},
      {"measurement": "TGI", "setting": "XF 498 CNS", "result": "> 100", "unit": "µM"}
    ]},
    {"smiles": "CO/N=C(/C(=O)Nc1c[n+](CC(=O)[O-])cs1)c1csc(N)n1", "values": [
      {"measurement": "TGI", "setting": "HOP-18 NSCLC", "result": "> 100", "unit": "µM"},
      {"measurement": "TGI", "setting": "XF 498 CNS", "result": "> 100", "unit": "µM"}
    ]},
    {"smiles": "O=[N+]([O-])c1cccc(C2=NN(c3ccccc3)C3c4ccccc4OCC23)c1", "note": "(configuration not stated)", "values": [
      {"measurement": "TGI", "setting": "HOP-18 NSCLC", "result": "> 100", "unit": "µM"},
      {"measurement": "TGI", "setting": "RXF-631 renal", "result": "> 100", "unit": "µM"},
      {"measurement": "TGI", "setting": "XF 498 CNS", "result": "> 100", "unit": "µM"}
    ]},
    {"smiles": "O=C(O[C@H]1[C@@H]2C=CO[C@@H](OC3OC(CO)C(O)C(O)C3O)[C@@H]2[C@@]2(CO)O[C@@H]12)c1ccc(O)c(O)c1", "note": "(some centres not stated)", "values": [
      {"measurement": "TGI", "setting": "XF 498 CNS", "result": "> 100", "unit": "µM"}
    ]}
  ]
}
